Measured values published in paper PMC9686653, “Bioengineered Nisin A Derivatives Display Enhanced Activity against Clinical Neonatal Pathogens” (Antibiotics, 2022).
In brackets after ≈: the same amount, converted by molar mass. Entries after “also recorded” stand apart in the source; their conditions may differ. Read-outs that look alike come from different tables or passages of the source. Marks after values point to notes of the source that are not given here.

How the values were obtained:
S. agalactiae CIT 239 = assay: Broth MIC assay; assay type: cell-based, Streptococcus agalactiae; conditions: Streptococcus agalactiae
Protocol: (§1) MIC determinations were carried out in triplicate in 96-well microtiter plates (Sarstedt, Newton, NC, USA) as previously described. Initially, 200µL of 1% bovine serum albumin (BSA) (Sigma-Aldrich, St. Louis, MO, USA) (in PBS) was added to the plates which were incubated at 37 °C for 30 min. The solution was removed, plates were washed with 200 µL PBS and then air dried in a laminar flow hood. Target strains (Streptococcus agalactiae, Staphylococcus capitis and Lactococcus lactis) were grown overnight in suitable media under appropriate conditions and were subsequently sub-cultured into fresh broth and allowed to grow to an optical density of ~0.5 (OD600). The culture was then diluted to a final concentration of 10^5 CFU mL^−1 in a volume of 1 mL. The peptides were resuspended in appropriate media to a stock concentration of […] (S. agalactiae and S. capitis strains) and […] (L. lactis strains). Nisin A and nisin derivatives were adjusted to a starting concentration of 15 µM (S. agalactiae and S. capitis strains) or 5 µM (L. lactis strains). […] An aliquot of 100 µL of peptides and or antibiotics were added to the first well, mixed and then 2-fold serial dilutions of each peptide were made in TSBYE broth. Then, 100 µL of target strain was added to each test well, and the plates were incubated at 30 °C or 37 °C for 16 h. The MIC was read as the lowest peptide concentration causing inhibition of visible growth. Experiments were performed in triplicate.

S. agalactiae CIT 364 = assay: Broth MIC assay; assay type: cell-based, Streptococcus agalactiae; conditions: Streptococcus agalactiae, CIT364; broth microdilution in TSBYE, 10^5 CFU/mL, 16 h, 37 °C; average of three independent biological repeats; read-out: MIC
Protocol: as §1

S. agalactiae CIT 67 = assay: Broth MIC assay; assay type: cell-based, Streptococcus agalactiae; conditions: Streptococcus agalactiae, CIT67; broth microdilution in TSBYE, 10^5 CFU/mL, 16 h, 37 °C; average of three independent biological repeats; read-out: MIC
Protocol: as §1

S. agalactiae CIT 85 = assay: Broth MIC assay; assay type: cell-based, Streptococcus agalactiae; conditions: for MIC: Streptococcus agalactiae
Protocol: as §1

S. agalactiae CIT 87 = assay: Broth MIC assay; assay type: cell-based, Streptococcus agalactiae; conditions: Streptococcus agalactiae, CIT87; broth microdilution in TSBYE, 10^5 CFU/mL, 16 h, 37 °C; average of three independent biological repeats; read-out: MIC
Protocol: as §1

S. agalactiae strains = assay: Broth MIC assay, summary over isolates; assay type: cell-based, Streptococcus agalactiae; conditions: for MIC: Streptococcus agalactiae, read-out: MIC values over S. agalactiae strains, span over the isolates the sentence refers to (three, four or all five)
Protocol: as §1

S. capitis AR18 = assay: Broth MIC assay; assay type: cell-based; conditions: Staphylococcus capitis, AR18; broth microdilution in TSBYE, 10^5 CFU/mL, 16 h, 37 °C; average of three independent biological repeats; read-out: MIC
Protocol: as §1

S. capitis AV80 [1] = assay: Broth MIC assay; assay type: cell-based; conditions: Staphylococcus capitis, AV80; broth microdilution in TSBYE, 10^5 CFU/mL, 16 h, 37 °C; average of three independent biological repeats; read-out: MIC
Protocol: as §1

S. capitis AY41 = assay: microbe, parasite or virus in culture; assay type: cell-based, Staphylococcus capitis; conditions: for MIC: 16 h
Protocol: as §1

S. capitis BA06 = assay: Broth MIC assay; assay type: cell-based, Staphylococcus capitis; conditions: for MIC: Staphylococcus capitis, BA06, broth microdilution in TSBYE, 10^5 CFU/mL, 16 h, 37 °C, average of three independent biological repeats, read-out: MIC
Protocol: as §1

S. capitis BD01 = assay: Broth MIC assay; assay type: cell-based, Staphylococcus capitis; conditions: Staphylococcus capitis, BD01; broth microdilution in TSBYE, 10^5 CFU/mL, 16 h, 37 °C; average of three independent biological repeats; read-out: MIC
Protocol: as §1

S. capitis strains = assay: Broth MIC assay, summary over isolates; assay type: cell-based, Staphylococcus capitis
Protocol: as §1, with “Then, 100 µL of target strain was added to each test well, and the plates were incubated at 30 °C or 37 °C for 16 h.” left out, “Experiments were performed in triplicate.” left out

S. capitis AV80 [2] = assay: Time-kill curve analysis; assay type: cell-based, Staphylococcus capitis; conditions: nisin peptides […] (1/4 MIC), ampicillin 3.75 µg/mL (1/4 MIC); re-growth after 6 h
Protocol: The means and standard deviations of three independent determinations are presented.
During incubation, 100µL of each sample was taken at 0, 2, 4, 6 and 24 h. Cell growth was assessed by performing viable cell counts by diluting cultures in PBS solution and enumeration on TSBYE plates. Synergism was defined as ≥2 log10 CFU/mL reduction with the combination of antimicrobials relative to either antimicrobial alone after 24 h. A 1–2 log10 reduction in CFU/mL was defined as an additive effect and an increase or decrease of <1 log10 was defined as an indifferent effect. An antagonistic effect was defined as >2 log10 increase in CFU/mL after 24 h [28]. Experiments were performed in triplicate.

[3] = system: clinical isolates of S. agalactiae (n = 5) and S. capitis (n = 5); assay: Deferred antagonism agar-based assay; assay type: cell-based, Streptococcus agalactiae, Staphylococcus capitis; conditions: pathogenic indicators, n = 10; listed as nisin PV
Protocol: All plates were supplemented with sub-inhibitory concentration (10 µg/L) of nisin in the form of nisaplin to ensure induction of the nisin mutants.
Site-saturation mutagenesis of three codons, including threonine, lysine and methionine, at positions 2, 12 and 17 of the nisA gene, was carried out as described previously. Briefly, pDF23 (pCI372-PV) was used as a template and oligonucleotides, NisT2deg-FOR and REV, NisK12deg-FOR and REV and Nis17deg-FOR and REV, containing an NNK codon potentially encoding for all twenty standard amino acids. Deferred antagonism agar-based assays were employed to assess the bioactivity of the nisin derivatives (PV, K12X-PV, T2X-PV, and M17X-PV) produced by each strain. Briefly, fresh overnight cultures of each L. lactis test culture was replicated on GM17/TSBYE agar plates containing 0.1% nisaplin using a 96-pin replicator (Boekel, Feasterville, PA, USA) and incubated overnight at 30 °C before being exposed to ultraviolet radiation for 45 min. The plates were then overlayed with GM17/TYSBYE agar (0.75% agar) and seeded (0.5% inoculum) with either Lactococcus lactis MG1614 (NSR-), the nisin resistance protein-expressing indicator strain L. lactis MG1614 pNP40 (NSR+) or TSBYE agar seeded with Staphylococcus capitis (NSR+) or Streptococcus agalactiae (NSR+) isolates. […]

[4] = system: nisin resistance protein (NSR); conditions: cited from earlier work
[5] = CIT239, broth microdilution in TSBYE, 10^5 CFU/mL, 16 h, 37 °C, average of three independent biological repeats, read-out: MIC
[6] = CIT85, broth microdilution in TSBYE, 10^5 CFU/mL, 16 h, 37 °C, average of three independent biological repeats, read-out: MIC
[7] = Staphylococcus capitis, AY41, broth microdilution in TSBYE, 10^5 CFU/mL, 37 °C, average of three independent biological repeats, read-out: MIC

| SMILES | MIC (S. agalactiae CIT 239; [5]) | MIC (S. agalactiae CIT 364) | MIC (S. agalactiae CIT 67) | MIC (S. agalactiae CIT 85; [6]) | MIC (S. agalactiae CIT 87) | MIC (S. agalactiae strains) | MIC (S. capitis AR18) | MIC (S. capitis AV80 [1]) | MIC (S. capitis AY41; [7]) | MIC (S. capitis BA06) | MIC (S. capitis BD01) | also measured |
| --- | --- | --- | --- | --- | --- | --- | --- | --- | --- | --- | --- | --- |
| CC1(C)S[C@@H]2[C@H](NC(=O)[C@H](N)c3ccccc3)C(=O)N2[C@H]1C(=O)O [Ampicillin, ampicillin] | 0.097 µg/mL (≈ 0.278 µM) | 0.78 µg/mL (≈ 2.23 µM) | 1.56 µg/mL (≈ 4.46 µM) | 0.097 µg/mL (≈ 0.278 µM) | 0.78 µg/mL (≈ 2.23 µM) | 0.78 to 1.56 µg/mL (≈ 2.23 to 4.46 µM) |  |  |  |  |  |  |
| CC[C@H]1OC(=O)[C@H](C)[C@@H](O[C@H]2C[C@@](C)(OC)[C@@H](O)[C@H](C)O2)[C@H](C)[C@@H](O[C@@H]2O[C@H](C)C[C@H](N(C)C)[C@H]2O)[C@](C)(O)C[C@@H](C)C(=O)[C@H](C)[C@@H](O)[C@]1(C)O [Erythromycin, erythromycin] |  | 0.78 µg/mL (≈ 1.06 µM) | 1 µg/mL (≈ 1.36 µM) |  | 0.39 µg/mL (≈ 0.531 µM) | 0.78 to 3.13 µg/mL (≈ 1.06 to 4.26 µM) | 0.097 µg/mL (≈ 0.132 µM) | 12.5 µg/mL (≈ 17 µM) | 0.195 µg/mL (≈ 0.266 µM) | 12.5 µg/mL (≈ 17 µM) | 6.25 µg/mL (≈ 8.52 µM) | MIC (S. agalactiae CIT 239; CIT239, 16 h): 1.56 µg/mL (≈ 2.13 µM); MIC (S. agalactiae CIT 85; CIT85, 16 h): 3.13 µg/mL (≈ 4.26 µM) |
| CNC(C)C1CCC(N)C(OC2C(N)CC(N)C(OC3OCC(C)(O)C(NC)C3O)C2O)O1 (stereo not shown) [Gentamicin, gentamicin] | 25 µg/mL (≈ 52.3 µM) | 25 µg/mL (≈ 52.3 µM) | 25 µg/mL (≈ 52.3 µM) | 6.25 µg/mL (≈ 13.1 µM) | 25 µg/mL (≈ 52.3 µM) |  | > 50 µg/mL | > 50 µg/mL | 0.39 µg/mL (≈ 0.817 µM) | > 50 µg/mL | > 50 µg/mL | MIC (S. capitis strains; Staphylococcus capitis, span over the isolates the sentence refers to (four or all five)): > 50 µg/mL |
| C=C(NC(=O)[C@@H](NC(=O)[C@H](Cc1c[nH]cn1)NC(=O)[C@@H](NC(=O)[C@@H]1CCCN1C(=O)[C@@H]1CS[C@@H](C)[C@H]2NC(=O)[C@H](C)NC(=O)[C@H](NC(=O)[C@H](CCCCN)NC(=O)[C@H](CCSC)NC(=O)[C@H](CC(N)=O)NC(=O)[C@@H]3CS[C@@H](C)[C@@H](NC(=O)[C@H](CCCCN)NC(=O)[C@@H]4CS[C@@H](C)[C@@H](NC(=O)[C@@H]5CSC[C@@H](NC(=O)/C(=C/C)NC(=O)[C@@H](N)[C@@H](C)CC)C(=O)N[C@@H]([C@@H](C)CC)C(=O)NC(=C)C(=O)N[C@@H](CC(C)C)C(=O)N5)C(=O)N5CCC[C@H]5C(=O)NCC(=O)N4)C(=O)NCC(=O)N[C@@H](C)C(=O)N[C@@H](CC(C)C)C(=O)N[C@@H](CCSC)C(=O)NCC(=O)N3)[C@H](C)SC[C@H](NC2=O)C(=O)N[C@@H](Cc2c[nH]cn2)C(=O)N1)C(C)C)C(C)C)C(=O)N[C@@H](CCCCN)C(=O)O [PV] |  |  |  |  |  |  |  |  |  |  |  | fold decrease in potency compared to nisin A (S. agalactiae CIT 85; from MIC): 2 fold; MIC (S. capitis AY41): 6 * µg/mL; fold increase in potency compared to nisin A (S. capitis AY41; from MIC): 4 fold; fold increase in potency compared to nisin A (S. capitis BA06; from MIC): 2 fold; fold increase in potency compared to nisin A (S. agalactiae strains; four of the five S. agalactiae strains, from MIC): 2 fold; fold more active compared to nisin A (S. capitis strains; some strains of S. capitis, purified peptides): 2–4 fold; time-kill outcome of single treatments (S. capitis AV80 [2]): inhibited bacterial growth over 4 h; bioactivity (zone of inhibition) of the producing strain [3]: improved antimicrobial activity against all strains tested; also recorded: greatest bioactivity against the majority of pathogenic indicators; susceptibility to proteolytic cleavage by NSR [4]: resist proteolytic cleavage by NSR |
